Reference: the supplement of paper PMC11061612

Assays:
Assay in all cases: Bliss excess, mean over the matrix (fraction); higher = more synergy
[1] = system: MFE-280 (Endometrial Carcinoma)
How it was run: (§1)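 Cell lines grown in DMEM/F12 or RPMI with 10% FBS were plated in 1536-well plates and held 24 hours at 37°C, 5% CO2 before 72 hours of exposure to two-drug dose matrices, with DMSO typically at 0.2%. CellTiter-Glo 2.0 luminescence gave viability, which was converted to inhibition. Vehicle wells were set to 0 and blank wells to 1. Combination Emax is the second-highest inhibition in the matrix, and Bliss excess is the observed combination effect minus the expected EA + EB − EA·EB, where EA and EB are the single-agent effects.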

[2] = system: NCI-H23 (Lung Adenocarcinoma)
How it was run: as §1

[3] = system: PSN1 (Pancreatic Carcinoma)
How it was run: as §1

[4] = system: HSC-39 (Gastric Carcinoma)
How it was run: as §1

[5] = system: FADU (Head and Neck Carcinoma)
How it was run: as §1

[6] = system: MKN45 (Gastric Carcinoma)
How it was run: as §1

LN-229 (Glioblastoma) = system: LN-229 (Glioblastoma)
How it was run: as §1

[7] = system: RKN (Other Solid Carcinomas)
How it was run: as §1

[8] = system: NCI-H446 (Small Cell Lung Carcinoma)
How it was run: as §1

WM793B (Melanoma) = system: WM793B (Melanoma)
How it was run: as §1

[9] = system: HCT-15 (Colorectal Carcinoma)
How it was run: as §1

[10] = system: SU-DHL-10 (B-Cell Non-Hodgkin's Lymphoma)
How it was run: as §1

WM278 (Melanoma) = system: WM278 (Melanoma)
How it was run: as §1

[11] = system: GP5d (Colorectal Carcinoma)
How it was run: as §1

IST-MES1 (Mesothelioma) = system: IST-MES1 (Mesothelioma)
How it was run: as §1

[12] = system: SK-PN-DW (Other Solid Carcinomas)
How it was run: as §1

SF539 (Glioblastoma) = system: SF539 (Glioblastoma)
How it was run: as §1

SF268 (Low Grade Glioma) = system: SF268 (Low Grade Glioma)
How it was run: as §1

GB-1 (Glioblastoma) = system: GB-1 (Glioblastoma)
How it was run: as §1

[13] = system: REH (B-Lymphoblastic Leukemia)
How it was run: as §1

| Structure (SMILES) | Bliss excess [1] | Bliss excess [2] | Bliss excess [3] | Bliss excess [4] | Bliss excess [5] | Bliss excess [6] | Bliss excess (LN-229 (Glioblastoma)) | Bliss excess [7] | Bliss excess [8] | Bliss excess (WM793B (Melanoma)) | Bliss excess [9] | Bliss excess [10] | Bliss excess (WM278 (Melanoma)) | Bliss excess [11] | Bliss excess (IST-MES1 (Mesothelioma)) | Bliss excess [12] | Bliss excess (SF539 (Glioblastoma)) | Bliss excess (SF268 (Low Grade Glioma)) | Bliss excess (GB-1 (Glioblastoma)) | Bliss excess [13] |
| --- | --- | --- | --- | --- | --- | --- | --- | --- | --- | --- | --- | --- | --- | --- | --- | --- | --- | --- | --- | --- |
| COc1cccc(OCCCN)c1-c1cc(Nc2cnc(C#N)cn2)n[nH]1 [Prexasertib] + C=CCn1c(=O)c2cnc(Nc3ccc(N4CCN(C)CC4)cc3)nc2n1-c1cccc(C(C)(C)O)n1 [AZD1775] (first compound max 1 µM, partner max 1 µM) | 0.176 | 0.0334 | 0.178 | 0.05 | 0.084 | -0.0561 | -0.0177 | 0.117 | 0.0829 | 0.0129 | 0.0406 | 0.0558 | 0.0753 | 0.035 | 0.127 | 0.0025 | 0.0187 | 0.0619 | 0.0483 | 0.114 |
| CC1(C)CCC(CN2CCN(c3ccc(C(=O)NS(=O)(=O)c4ccc(NCC5CCOCC5)c([N+](=O)[O-])c4)c(Oc4cnc5[nH]ccc5c4)c3)CC2)=C(c2ccc(Cl)cc2)C1 [Venetoclax] + C[C@@H](Nc1cc(F)cc(F)c1)c1cc(C(=O)N(C)C)cc2c(=O)cc(N3CCOCC3)oc12 [AZD8186] (first compound max 1 µM, 7x7, partner max 3 µM) | -0.0525 | 0.007 | -0.0683 | -0.0503 | -0.0291 | -0.057 | -0.0267 | -0.0289 | 0.135 | -0.016 | -0.0184 | 0.0052 | -0.0199 | -0.0188 | -0.0423 | -0.0038 | -0.0062 | -0.0353 | -0.0076 | 0.01 |
| CC1(C)CCC(CN2CCN(c3ccc(C(=O)NS(=O)(=O)c4ccc(NCC5CCOCC5)c([N+](=O)[O-])c4)c(Oc4cnc5[nH]ccc5c4)c3)CC2)=C(c2ccc(Cl)cc2)C1 [Venetoclax] + C=CCn1c(=O)c2cnc(Nc3ccc(N4CCN(C)CC4)cc3)nc2n1-c1cccc(C(C)(C)O)n1 [AZD1775] (first compound max 1 µM, partner max 1 µM) | 0.0767 | -0.0533 | -0.0553 | 0.0776 | -0.0282 | -0.0402 | -0.0083 | -0.0729 | -0.029 | 0.0101 | -0.0265 | -0.018 | -0.0413 | -0.0561 | -0.0281 | 0.0457 | -0.0234 | -0.0218 | 0.0144 | 0.0623 |
| NC1(C(=O)N[C@@H](CCO)c2ccc(Cl)cc2)CCN(c2ncnc3[nH]ccc23)CC1 [Capivasertib] + COc1nnc2ccc(N3CCC(c4ccc(OCCN5CCN(C)C(=O)[C@H]5C)cc4)CC3)nn12 [AZD5153] (first compound max 10 µM, 7x7, partner max 1 µM) | -0.0126 | -0.0038 | -0.0448 | 0.0142 | 0.032 | -0.0587 | -0.0313 | -0.0451 | 0.0021 | -0.0115 | 0.0306 | -0.027 | 0.0078 | 0.0292 | -0.0264 | -0.0003 | 0.0157 | 0.0881 | 0.0557 | 0.0272 |
| COc1cccc(OCCCN)c1-c1cc(Nc2cnc(C#N)cn2)n[nH]1 [Prexasertib] + C[C@@H]1COCCN1C2=NC(=NC(=C2)C3(CC3)[S@](=N)(=O)C)C4=C5C=CNC5=NC=C4 [AZD6738] (first compound max 1 µM, 7x7, partner max 10 µM) | -0.024 | -0.0504 | 0.0334 | -0.0067 | -0.0333 | -0.0931 | -0.0577 | -0.027 | 0.0078 | -0.05 | 0.0391 | -0.0067 | -0.0364 | -0.0157 | 0.0093 | -0.0438 | -0.0046 | -0.0421 | -0.0337 | 0.0032 |
| Cc1c2c(nn1C)CSCc1cc(n(C)n1)CSc1cc(c3ccccc3c1)OCCCc1c(C(=O)O)n(C)c3c-2c(Cl)ccc13 [AZD5991] + CC1(C)CCC(CN2CCN(c3ccc(C(=O)NS(=O)(=O)c4ccc(NCC5CCOCC5)c([N+](=O)[O-])c4)c(Oc4cnc5[nH]ccc5c4)c3)CC2)=C(c2ccc(Cl)cc2)C1 [Venetoclax] (first compound max 1 µM, 7x7, partner max 1 µM) | -0.0225 | -0.0077 | -0.0873 | 0.0266 | -0.0231 | -0.0206 | -0.0271 | -0.0337 | 0.117 | -0.0016 | -0.0087 | -0.0173 | -0.0393 | -0.0134 | -0.0239 | 0.0206 | 0.0187 | -0.0096 | -0.0257 | 0.206 |
| Cc1c2c(nn1C)CSCc1cc(n(C)n1)CSc1cc(c3ccccc3c1)OCCCc1c(C(=O)O)n(C)c3c-2c(Cl)ccc13 [AZD5991] + C1CN(CCC1(C(=O)N[C@@H](CCO)C2=CC=C(C=C2)Cl)N)C3=NC=NC4=C3C=CN4 [Capivasertib] (first compound max 1 µM, 7x7, partner max 3 µM) | 0.027 | -0.0276 | -0.0533 | 0.0308 | 0.0213 | -0.0262 | 0.0178 | -0.0234 | 0.0419 | 0.0045 | 0.002 | -0.0047 | -0.0498 | -0.0493 | -0.0195 | 0.032 | -0.0043 | -0.008 | -0.0365 | -0.0557 |
| CC1(C)CCC(CN2CCN(c3ccc(C(=O)NS(=O)(=O)c4ccc(NCC5CCOCC5)c([N+](=O)[O-])c4)c(Oc4cnc5[nH]ccc5c4)c3)CC2)=C(c2ccc(Cl)cc2)C1 [Venetoclax] + C[C@@H]1COCCN1C2=NC(=NC(=C2)C3(CC3)[S@](=N)(=O)C)C4=C5C=CNC5=NC=C4 [AZD6738] (first compound max 1 µM, 7x7, partner max 10 µM) | -0.0486 | 0.0157 | -0.0848 | 0.0079 | 0.0467 | -0.0526 | -0.0601 | -0.058 | -0.0536 | -0.0044 | -0.0084 | 0.0138 | -0.0712 | -0.0657 | -0.0101 | -0.0045 | -0.0339 | -0.0723 | -0.0281 | 0.0493 |
| Cc1c2c(nn1C)CSCc1cc(n(C)n1)CSc1cc(c3ccccc3c1)OCCCc1c(C(=O)O)n(C)c3c-2c(Cl)ccc13 [AZD5991] + C[C@@H](Nc1cc(F)cc(F)c1)c1cc(C(=O)N(C)C)cc2c(=O)cc(N3CCOCC3)oc12 [AZD8186] (first compound max 1 µM, 7x7, partner max 3 µM) | 0.0185 | -0.0085 | -0.0407 | -0.0069 | 0.0315 | -0.0777 | -0.0063 | -0.0269 | 0.183 | 0.0512 | -0.01 | 0.0239 | 0.0096 | -0.0645 | -0.0524 | 0.0126 | -0.0052 | -0.0095 | -0.0152 | -0.024 |
| COc1cccc2c1C(=O)c1c(O)c3c(c(O)c1C2=O)C[C@@](O)(C(=O)CO)C[C@@H]3O[C@H]1C[C@H](N)[C@H](O)[C@H](C)O1 [Doxorubicin] + Cc1cc2ncnn2cc1Nc1ncc2c(n1)n(C1CCOCC1)c(=O)n2C [AZD7648] (first compound max 1 µM, 7x7, partner max 10 µM) | 0.0107 | 0.0413 | 0.0173 | 0.0909 | 0.126 | 0.0162 | -0.0159 | 0.0697 | 0.0855 | 0.0438 | 0.0644 | 0.0982 | 0.0204 | 0.081 | 0.0455 | 0.105 | 0.0403 | 0.0462 | 0.0165 | 0.177 |
| CC1(C)CCC(CN2CCN(c3ccc(C(=O)NS(=O)(=O)c4ccc(NCC5CCOCC5)c([N+](=O)[O-])c4)c(Oc4cnc5[nH]ccc5c4)c3)CC2)=C(c2ccc(Cl)cc2)C1 [Venetoclax] + CCN(CCO)CCCOc1ccc2c(Nc3cc(CC(=O)Nc4cccc(F)c4)[nH]n3)ncnc2c1 [AZD2811] (first compound max 1 µM, 7x7, partner max 1 µM) | 0.0557 | -0.0051 | -0.0478 | 0.0077 | 0.0341 | -0.066 | -0.014 | -0.011 | -0.0077 | 0.0206 | 0.0051 | -0.0844 | -0.0119 | -0.0235 | -0.0327 | -0.0703 | 0.0468 | 0.0342 | -0.0501 | 0.18 |
| Cn1cnc2c(F)c(Nc3ccc(Br)cc3Cl)c(C(=O)NOCCO)cc21 [Selumetinib] + C[C@@H]1COCCN1C2=NC(=NC(=C2)C3(CC3)[S@](=N)(=O)C)C4=C5C=CNC5=NC=C4 [AZD6738] (first compound max 10 µM, 7x7, partner max 10 µM) | -0.0651 | 0.0385 | -0.0193 | -0.0391 | 0.0102 | -0.0731 | 0.0078 | 0.0584 | 0.0036 | -0.0447 | -0.0057 | 0.0181 | 0.0642 | 0.0209 | -0.0374 | -0.0011 | 0.0586 | -0.0382 | -0.0347 | -0.0612 |
| CCN(CCO)CCCOc1ccc2c(Nc3cc(CC(=O)Nc4cccc(F)c4)[nH]n3)ncnc2c1 [AZD2811] + C=CCn1c(=O)c2cnc(Nc3ccc(N4CCN(C)CC4)cc3)nc2n1-c1cccc(C(C)(C)O)n1 [AZD1775] (first compound max 1 µM, partner max 1 µM) | 0.0727 | -0.0005 | -0.0007 | 0.0224 | 0.0047 | -0.0302 | -0.0363 | -0.0017 | 0.015 | 0.02 | 0.156 | -0.0481 | -0.0199 | 0.08 | -0.04 | 0.0431 | 0.0972 | -0.0005 | 0.0002 | 0.0449 |
| Cc1c2c(nn1C)CSCc1cc(n(C)n1)CSc1cc(c3ccccc3c1)OCCCc1c(C(=O)O)n(C)c3c-2c(Cl)ccc13 [AZD5991] + C=CCn1c(=O)c2cnc(Nc3ccc(N4CCN(C)CC4)cc3)nc2n1-c1cccc(C(C)(C)O)n1 [AZD1775] (first compound max 1 µM, partner max 1 µM) | 0.0045 | -0.0174 | -0.0694 | 0.0058 | -0.0016 | -0.0456 | 0.0754 | -0.0446 | -0.0162 | 0.0054 | -0.0306 | 0.0259 | 0.0438 | -0.0133 | 0.0383 | -0.0212 | -0.0239 | 0.0045 | 0.0148 | -0.112 |
